Reference: publication PMC6286390, “Discovering de novo peptide substrates for enzymes using machine learning” (Nature Communications, 2018)
“Also recorded” adds a separate entry of the source.

Assays:
B. subtilis Sfp = test: SPOT cellulose membrane peptide labeling with TAMRA-CoA by Sfp; type: biochemical, Bacillus subtilis; conditions: 10 µM PPTase, 40 µM TAMRA-CoA, 0.01% Triton X, 15 µM BSA, 50 mM Tris-HCl pH 8.0, 10 mM MgCl2, 16 h, 37 °C, fluorescence ex 532 nm/em 580 nm
Protocol: (§1) The peptides were synthesized on an amino-PEG-cellulose 10×15 cm^2 membrane and synthesized automatically by MultiPep RSi (INTAVIS Bioanalytical Instruments AG). After Fmoc cleavage with 20% 4-methyl piperidine (Sigma) in dimethylformamide (DMF), activated with 1 equiv. hydroxybenzotriazole and 2 equiv. N-methylpyrrolidone (NMP), and directly spotted on the membrane; after 15 min this step was repeated. The membrane was washed with DMF (3 × 3 min). Solutions of the Fmoc amino acids in NMP were spotted on the membrane (0.6 M solutions; 0.8 M solutions for C, H, N, Q, and R; triple coupling, 15 min each). The Fmoc group was removed from the spots, and the sequences of the peptides were completed using the standard SPOT synthesis protocol and followed by an N-terminal tag. […]
(§2) Synthesized membranes were deprotected with cleavage cocktail consisting of 94% trifluoroacetic acid (TFA), 2.5% water, 1% triisopropylsilane (Sigma), and 2.5% 1,2-ethanedithiol (Sigma) shaking at 2 h at room temperature. […] The membranes were rinsed liberally with TBST buffer, 0.1% TFA, and distilled deionized water before imaging on a Typhoon TRIO Variable Mode Imager (GE Healthcare BioSciences) at 50-µm resolution with 532 nm green laser excitation and 580 nm emission filter and a photomultiplier tube setting of 350 V. The membrane images were analyzed by the ImageJ software[37],[38].

S. coelicolor AcpS = test: SPOT cellulose membrane peptide labeling with TAMRA-CoA by AcpS; type: biochemical, Streptomyces coelicolor; conditions: 10 µM PPTase, 40 µM TAMRA-CoA, 0.01% Triton X, 15 µM BSA, 50 mM Tris-HCl pH 8.0, 10 mM MgCl2, 16 h, 37 °C, fluorescence ex 532 nm/em 580 nm
Protocol: as §1, §2

Sequence	labeling of membrane-bound peptide by Sfp (substrate / hit) (B. subtilis Sfp)	labeling of membrane-bound peptide by AcpS (substrate / hit) (S. coelicolor AcpS)
AVKMESLEYLDTM [4F01, Sfp-type peptide hit identified by POOL, round 4]	Sfp-type peptide hits; also recorded: specific to Sfp	
IHDGADSVVWLWSNC	neither a substrate for Sfp nor AcpS	neither a substrate for Sfp nor AcpS
WPEEGIESFMSVPPP [4T25, AcpS-type peptide hit identified by POOL, round 4]		AcpS-type peptide hits; also recorded: specific to AcpS
